Data taken from publication PMC8213057, “Targeting ALK2: An Open Science Approach to Developing Therapeutics for the Treatment of Diffuse Intrinsic Pontine Glioma” (Journal of Medicinal Chemistry, 2020).
Where “and” joins values, the source holds several entries; their conditions need not be identical. Equal entries are not always repeated.

Experiments:
EPHB1 = target: T1, EPHB1 (Homo sapiens, UniProt P54762); test: biochemical; conditions: read-out: % enzyme activity, 1 μM; Run 1, Run 2
T1 sequence (P54762 18-984): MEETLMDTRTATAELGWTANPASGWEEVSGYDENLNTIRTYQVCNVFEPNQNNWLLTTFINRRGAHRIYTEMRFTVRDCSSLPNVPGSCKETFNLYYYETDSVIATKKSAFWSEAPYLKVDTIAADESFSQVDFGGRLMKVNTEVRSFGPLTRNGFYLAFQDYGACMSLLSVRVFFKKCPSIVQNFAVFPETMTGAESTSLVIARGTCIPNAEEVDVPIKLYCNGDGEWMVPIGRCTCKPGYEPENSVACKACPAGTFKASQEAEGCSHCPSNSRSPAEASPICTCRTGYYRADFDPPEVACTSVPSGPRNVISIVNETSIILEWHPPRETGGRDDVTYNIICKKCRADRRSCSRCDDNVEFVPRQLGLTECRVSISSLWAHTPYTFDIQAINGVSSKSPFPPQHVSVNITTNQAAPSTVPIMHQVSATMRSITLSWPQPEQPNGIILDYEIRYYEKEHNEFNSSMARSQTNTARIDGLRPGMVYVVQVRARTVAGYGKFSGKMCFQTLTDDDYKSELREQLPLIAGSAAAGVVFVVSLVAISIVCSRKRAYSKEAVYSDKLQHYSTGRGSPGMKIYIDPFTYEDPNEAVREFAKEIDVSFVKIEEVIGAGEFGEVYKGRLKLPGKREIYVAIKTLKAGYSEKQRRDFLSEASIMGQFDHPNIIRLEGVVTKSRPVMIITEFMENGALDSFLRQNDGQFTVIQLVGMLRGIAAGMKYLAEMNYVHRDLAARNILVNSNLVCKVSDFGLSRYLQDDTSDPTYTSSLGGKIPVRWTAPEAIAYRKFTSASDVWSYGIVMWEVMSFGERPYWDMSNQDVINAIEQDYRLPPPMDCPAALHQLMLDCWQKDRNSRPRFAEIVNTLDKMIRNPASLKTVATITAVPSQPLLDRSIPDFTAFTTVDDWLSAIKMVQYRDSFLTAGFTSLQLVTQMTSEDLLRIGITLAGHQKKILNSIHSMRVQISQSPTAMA

PHKg1 = PHKg1 (Homo sapiens, UniProt Q16816); conditions: 1 μM; Run 1, Run 2
ALK = ALK (Homo sapiens, UniProt Q9UM73); conditions: 1 μM; Run 1, Run 2
MLCK/MYLK = MLCK/MYLK (Homo sapiens, UniProt Q15746); test: biochemical; conditions: read-out: % enzyme activity, 1 μM; Run 1, Run 2
ERN1/IRE1 = ERN1/IRE1 (Homo sapiens, UniProt O75460); conditions: 1 μM; Run 1, Run 2
DRAK1/STK17A = target: T2, DRAK1/STK17A (Homo sapiens, UniProt Q9UEE5); conditions: 1 μM; Run 1, Run 2
T2 sequence (Q9UEE5 1-414): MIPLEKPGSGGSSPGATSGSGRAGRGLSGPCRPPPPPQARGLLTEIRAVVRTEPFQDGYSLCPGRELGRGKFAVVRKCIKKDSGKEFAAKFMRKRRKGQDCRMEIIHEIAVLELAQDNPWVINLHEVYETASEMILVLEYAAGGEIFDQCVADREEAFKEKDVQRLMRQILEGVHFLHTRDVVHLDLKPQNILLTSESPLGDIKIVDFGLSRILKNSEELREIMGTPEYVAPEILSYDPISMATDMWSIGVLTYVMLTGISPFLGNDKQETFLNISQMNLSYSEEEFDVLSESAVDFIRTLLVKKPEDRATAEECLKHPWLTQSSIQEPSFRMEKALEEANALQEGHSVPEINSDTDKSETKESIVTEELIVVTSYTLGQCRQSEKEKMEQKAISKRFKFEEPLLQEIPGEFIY

p70S6K/RPS6KB1 = p70S6K/RPS6KB1 (Homo sapiens, UniProt P23443); test: biochemical; conditions: read-out: % enzyme activity, 1 μM; Run 1, Run 2
WNK3 = WNK3 (Homo sapiens, UniProt Q9BYP7); test: biochemical; conditions: read-out: % enzyme activity, 1 μM; Run 1, Run 2
EPHA5 = EPHA5 (Homo sapiens, UniProt P54756); conditions: 1 μM; Run 1, Run 2
MEK2 = MEK2 (Homo sapiens, UniProt P36507); conditions: 1 μM; Run 1, Run 2
IR = IR (Homo sapiens, UniProt P06213); test: biochemical; conditions: read-out: % enzyme activity, 1 μM; Run 1, Run 2
CDK9/cyclin T2 = CDK9/cyclin T2 (Homo sapiens, UniProt P50750); conditions: 1 μM; Run 1, Run 2
PKAcg = PKAcg (Homo sapiens, UniProt P22612); conditions: 1 μM; Run 1, Run 2
ULK3 = target: T3, ULK3 (Homo sapiens, UniProt Q6PHR2); conditions: 1 μM; Run 1, Run 2
T3 sequence (Q6PHR2 1-472): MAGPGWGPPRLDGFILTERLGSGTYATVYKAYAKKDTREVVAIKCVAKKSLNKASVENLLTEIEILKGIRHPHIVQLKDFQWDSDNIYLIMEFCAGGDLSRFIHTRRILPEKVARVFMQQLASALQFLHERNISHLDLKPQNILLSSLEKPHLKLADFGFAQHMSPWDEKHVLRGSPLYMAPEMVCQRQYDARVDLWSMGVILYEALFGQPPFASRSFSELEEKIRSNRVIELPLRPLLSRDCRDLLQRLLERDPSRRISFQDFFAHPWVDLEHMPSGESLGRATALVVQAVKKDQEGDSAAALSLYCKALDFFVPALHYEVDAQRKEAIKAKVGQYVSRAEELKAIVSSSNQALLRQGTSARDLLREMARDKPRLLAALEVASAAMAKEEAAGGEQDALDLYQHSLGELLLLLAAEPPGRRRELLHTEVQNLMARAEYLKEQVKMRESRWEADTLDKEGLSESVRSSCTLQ

NEK6 = NEK6 (Homo sapiens, UniProt Q9HC98); test: biochemical; conditions: read-out: % enzyme activity, 1 μM; Run 1, Run 2
COT1/MAP3K8 = COT1/MAP3K8 (Homo sapiens, UniProt P41279); test: biochemical; conditions: read-out: % enzyme activity, 1 μM; Run 1, Run 2
SRMS = SRMS (Homo sapiens, UniProt Q9H3Y6); conditions: 1 μM; Run 1, Run 2
PKCa = PKCa (Homo sapiens, UniProt P17252); test: biochemical; conditions: read-out: % enzyme activity, 1 μM; Run 1, Run 2

Chain of COT1/MAP3K8 (P41279 whole entry): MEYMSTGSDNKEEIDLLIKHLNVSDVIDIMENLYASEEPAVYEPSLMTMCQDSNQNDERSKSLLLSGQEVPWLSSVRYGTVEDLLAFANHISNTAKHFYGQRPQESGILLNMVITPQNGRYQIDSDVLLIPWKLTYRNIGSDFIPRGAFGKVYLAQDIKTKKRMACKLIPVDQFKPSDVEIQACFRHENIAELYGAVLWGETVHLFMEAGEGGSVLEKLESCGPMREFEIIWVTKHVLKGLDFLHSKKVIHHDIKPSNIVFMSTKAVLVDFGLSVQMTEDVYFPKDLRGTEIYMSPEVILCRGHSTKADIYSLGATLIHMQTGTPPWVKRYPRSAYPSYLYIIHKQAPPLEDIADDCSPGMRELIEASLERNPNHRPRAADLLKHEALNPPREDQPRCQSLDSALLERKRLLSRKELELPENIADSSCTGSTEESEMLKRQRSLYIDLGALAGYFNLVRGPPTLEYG
Chain of WNK3 (Q9BYP7 whole entry, species assumed): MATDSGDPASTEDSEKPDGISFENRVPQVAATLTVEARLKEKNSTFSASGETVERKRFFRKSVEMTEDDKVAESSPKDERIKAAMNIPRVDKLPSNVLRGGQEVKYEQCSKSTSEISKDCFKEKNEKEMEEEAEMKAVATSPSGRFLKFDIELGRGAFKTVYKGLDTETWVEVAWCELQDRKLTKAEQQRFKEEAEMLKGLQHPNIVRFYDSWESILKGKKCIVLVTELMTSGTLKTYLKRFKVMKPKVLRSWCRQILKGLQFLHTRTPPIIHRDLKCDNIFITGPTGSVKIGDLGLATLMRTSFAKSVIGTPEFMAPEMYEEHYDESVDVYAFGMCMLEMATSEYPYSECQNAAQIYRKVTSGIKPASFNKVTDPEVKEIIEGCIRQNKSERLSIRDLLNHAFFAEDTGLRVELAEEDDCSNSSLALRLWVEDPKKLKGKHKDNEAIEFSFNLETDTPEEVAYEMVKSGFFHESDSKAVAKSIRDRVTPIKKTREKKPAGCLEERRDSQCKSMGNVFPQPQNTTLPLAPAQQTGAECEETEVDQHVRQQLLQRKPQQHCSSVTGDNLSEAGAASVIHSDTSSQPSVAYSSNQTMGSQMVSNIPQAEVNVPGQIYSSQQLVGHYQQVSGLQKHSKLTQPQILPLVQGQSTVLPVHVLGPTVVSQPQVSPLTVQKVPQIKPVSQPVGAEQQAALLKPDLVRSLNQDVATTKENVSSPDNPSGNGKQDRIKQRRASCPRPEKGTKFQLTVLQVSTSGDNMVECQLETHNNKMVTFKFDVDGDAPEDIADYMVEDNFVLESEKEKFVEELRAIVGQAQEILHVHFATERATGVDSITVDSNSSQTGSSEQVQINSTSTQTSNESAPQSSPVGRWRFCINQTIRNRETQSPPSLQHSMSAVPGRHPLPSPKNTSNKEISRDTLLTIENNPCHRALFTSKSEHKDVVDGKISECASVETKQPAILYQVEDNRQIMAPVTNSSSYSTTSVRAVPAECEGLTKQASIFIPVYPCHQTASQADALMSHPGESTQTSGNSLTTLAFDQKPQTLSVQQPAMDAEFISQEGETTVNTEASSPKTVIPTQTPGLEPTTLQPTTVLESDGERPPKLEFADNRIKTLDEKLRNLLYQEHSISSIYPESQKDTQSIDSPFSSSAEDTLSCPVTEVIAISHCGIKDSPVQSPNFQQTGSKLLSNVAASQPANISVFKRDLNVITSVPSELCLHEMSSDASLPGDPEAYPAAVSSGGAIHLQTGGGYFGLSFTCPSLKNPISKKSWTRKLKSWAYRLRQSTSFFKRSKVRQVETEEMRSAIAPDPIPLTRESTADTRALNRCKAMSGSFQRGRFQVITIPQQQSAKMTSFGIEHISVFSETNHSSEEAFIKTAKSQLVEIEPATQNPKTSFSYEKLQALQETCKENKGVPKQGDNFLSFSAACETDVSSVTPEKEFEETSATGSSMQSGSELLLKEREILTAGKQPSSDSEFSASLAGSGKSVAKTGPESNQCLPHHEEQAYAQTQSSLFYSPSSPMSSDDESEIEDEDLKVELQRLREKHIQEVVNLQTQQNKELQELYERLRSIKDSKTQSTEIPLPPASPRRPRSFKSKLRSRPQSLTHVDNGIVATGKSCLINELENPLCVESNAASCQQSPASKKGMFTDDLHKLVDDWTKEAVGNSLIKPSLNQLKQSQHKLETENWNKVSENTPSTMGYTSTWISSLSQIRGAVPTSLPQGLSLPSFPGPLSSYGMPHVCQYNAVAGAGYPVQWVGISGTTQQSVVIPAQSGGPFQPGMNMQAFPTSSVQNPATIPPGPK
Chain of CDK9/cyclin T2 (P50750 whole entry): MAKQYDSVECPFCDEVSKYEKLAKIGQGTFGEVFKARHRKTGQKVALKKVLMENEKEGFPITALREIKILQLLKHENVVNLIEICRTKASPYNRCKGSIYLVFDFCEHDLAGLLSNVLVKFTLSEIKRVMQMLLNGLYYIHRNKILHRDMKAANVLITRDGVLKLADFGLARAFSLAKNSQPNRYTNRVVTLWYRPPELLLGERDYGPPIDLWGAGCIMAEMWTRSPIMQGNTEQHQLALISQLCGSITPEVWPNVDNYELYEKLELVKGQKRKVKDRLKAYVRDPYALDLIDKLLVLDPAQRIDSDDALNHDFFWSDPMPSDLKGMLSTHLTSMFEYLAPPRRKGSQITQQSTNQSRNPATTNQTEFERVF
Chain of CDK9/cyclin T2 (O60583 whole entry partner): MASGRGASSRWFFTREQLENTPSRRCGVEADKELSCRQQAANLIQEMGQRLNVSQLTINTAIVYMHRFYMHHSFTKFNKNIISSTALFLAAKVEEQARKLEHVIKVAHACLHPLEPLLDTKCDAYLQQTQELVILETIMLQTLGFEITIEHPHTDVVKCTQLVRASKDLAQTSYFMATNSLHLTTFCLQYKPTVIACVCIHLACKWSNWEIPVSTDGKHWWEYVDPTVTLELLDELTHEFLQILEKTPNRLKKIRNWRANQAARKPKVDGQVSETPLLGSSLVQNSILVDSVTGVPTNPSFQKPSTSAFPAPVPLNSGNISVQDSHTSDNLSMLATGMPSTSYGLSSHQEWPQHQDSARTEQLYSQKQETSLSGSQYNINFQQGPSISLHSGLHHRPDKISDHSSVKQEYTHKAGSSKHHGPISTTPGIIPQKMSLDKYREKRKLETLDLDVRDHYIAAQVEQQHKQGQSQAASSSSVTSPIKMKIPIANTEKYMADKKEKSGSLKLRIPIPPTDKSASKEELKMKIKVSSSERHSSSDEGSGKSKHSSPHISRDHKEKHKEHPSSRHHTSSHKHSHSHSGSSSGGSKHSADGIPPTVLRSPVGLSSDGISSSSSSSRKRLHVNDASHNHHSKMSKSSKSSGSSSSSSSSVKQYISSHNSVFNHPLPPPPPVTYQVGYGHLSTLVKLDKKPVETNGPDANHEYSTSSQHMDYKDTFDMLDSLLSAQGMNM
Chain of PKAcg (P22612 whole entry): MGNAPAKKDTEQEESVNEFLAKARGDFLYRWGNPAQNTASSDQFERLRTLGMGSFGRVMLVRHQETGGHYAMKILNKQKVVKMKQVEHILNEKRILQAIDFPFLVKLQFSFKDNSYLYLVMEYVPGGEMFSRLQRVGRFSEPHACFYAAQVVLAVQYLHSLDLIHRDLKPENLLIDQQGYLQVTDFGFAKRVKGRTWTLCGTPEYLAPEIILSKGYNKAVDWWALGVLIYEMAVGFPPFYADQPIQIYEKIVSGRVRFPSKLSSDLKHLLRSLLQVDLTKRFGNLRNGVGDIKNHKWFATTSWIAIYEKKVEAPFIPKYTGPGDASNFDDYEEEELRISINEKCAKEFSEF
Chain of NEK6 (Q9HC98 whole entry): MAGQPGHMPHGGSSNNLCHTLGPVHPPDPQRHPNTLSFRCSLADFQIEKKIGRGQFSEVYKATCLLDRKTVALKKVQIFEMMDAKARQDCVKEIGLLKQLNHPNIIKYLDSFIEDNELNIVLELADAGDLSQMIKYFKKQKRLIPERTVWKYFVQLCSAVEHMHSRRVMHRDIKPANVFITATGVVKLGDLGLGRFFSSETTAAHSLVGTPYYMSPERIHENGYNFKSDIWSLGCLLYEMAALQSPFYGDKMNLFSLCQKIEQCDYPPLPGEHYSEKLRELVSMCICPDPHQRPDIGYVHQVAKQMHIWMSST
Chain of EPHA5 (P54756 25-1037): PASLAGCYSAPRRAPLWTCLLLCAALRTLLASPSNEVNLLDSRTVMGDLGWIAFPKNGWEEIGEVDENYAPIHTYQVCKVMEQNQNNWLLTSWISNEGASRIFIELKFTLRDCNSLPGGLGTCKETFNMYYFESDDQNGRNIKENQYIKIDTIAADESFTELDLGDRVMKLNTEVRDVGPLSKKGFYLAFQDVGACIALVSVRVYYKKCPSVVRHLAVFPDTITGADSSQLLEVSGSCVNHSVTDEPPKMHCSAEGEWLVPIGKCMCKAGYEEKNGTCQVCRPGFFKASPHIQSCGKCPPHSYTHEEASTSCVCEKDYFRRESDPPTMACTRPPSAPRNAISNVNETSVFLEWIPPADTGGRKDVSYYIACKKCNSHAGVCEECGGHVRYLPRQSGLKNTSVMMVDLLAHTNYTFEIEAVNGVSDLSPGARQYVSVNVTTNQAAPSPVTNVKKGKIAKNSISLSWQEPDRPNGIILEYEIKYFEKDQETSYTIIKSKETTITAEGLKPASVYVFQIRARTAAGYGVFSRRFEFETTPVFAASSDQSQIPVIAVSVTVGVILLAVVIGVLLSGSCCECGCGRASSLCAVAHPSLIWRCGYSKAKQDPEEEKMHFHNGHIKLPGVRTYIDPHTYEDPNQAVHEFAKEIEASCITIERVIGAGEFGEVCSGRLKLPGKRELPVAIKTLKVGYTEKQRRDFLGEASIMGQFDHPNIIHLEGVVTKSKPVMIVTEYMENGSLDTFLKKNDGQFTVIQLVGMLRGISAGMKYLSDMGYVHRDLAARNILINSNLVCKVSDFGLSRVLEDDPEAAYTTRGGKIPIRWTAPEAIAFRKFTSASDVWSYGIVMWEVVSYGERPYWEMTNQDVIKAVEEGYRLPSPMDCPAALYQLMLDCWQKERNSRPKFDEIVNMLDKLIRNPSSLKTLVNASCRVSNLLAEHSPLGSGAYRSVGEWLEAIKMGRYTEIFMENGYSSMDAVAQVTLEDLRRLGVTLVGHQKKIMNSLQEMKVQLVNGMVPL

Compound	remaining activity at 1 µM (EPHB1)	% enzyme activity (PHKg1)	% enzyme activity (ALK)	remaining activity at 1 µM (MLCK/MYLK)	% enzyme activity (ERN1/IRE1)	% enzyme activity (DRAK1/STK17A)	remaining activity at 1 µM (p70S6K/RPS6KB1)	remaining activity at 1 µM (WNK3)	% enzyme activity (EPHA5)	% enzyme activity (MEK2)	remaining activity at 1 µM (IR)	% enzyme activity (CDK9/cyclin T2)	% enzyme activity at 1 μM (MINK/MINK1)	% enzyme activity (PKAcg)	% enzyme activity (ULK3)	remaining activity at 1 µM (NEK6)	remaining activity at 1 µM (COT1/MAP3K8)	% enzyme activity (SRMS)	remaining activity at 1 µM (PKCa)
COc1cc(-c2cncc(-c3ccc(N4CCN(C)CC4)cc3)c2C)cc(F)c1C(N)=O [Compound 26a, 2-Fluoro-6-methoxy-4-(4-methyl-5-(4-(4-methylpiperazin-1-yl)phenyl)pyridin-3-yl)benzamide]	95.5%	82.79%	99.31%	106%	92.47%	95.60%	97.8%	89.6%	90.37%	85.87%	102%	99.00%	24.1% and 22.6%	93.99%	91.23%	99.3%	88.7%	95.09%	89.8%
COc1cc(-c2cncc(-c3ccc(N4C[C@@H](C)N(C)[C@@H](C)C4)cc3)c2C)cc(F)c1C(N)=O [Compound 26c, 2-Fluoro-6-methoxy-4-(4-methyl-5-(4-((3R,5S)-3,4,5-trimethylpiperazin-1-yl)phenyl)pyridin-3-yl)benzamide]	92.6%	95.24%	96.51%	103%	90.44%	95.69%	100%	93.8%	90.66%	91.58%	100%	100.35%	30.2% and 29.6%	98.97%	97.24%	104%	92.9%	95.91%	90.3%
